Series [1] concerns perfusion of the skin. As to conditions: cited from earlier work.
Series [2] in a line: Adverse side effects, intolerances, incompatibilities in treated subjects and patients. In kind it is in vivo, human. Conditions: for adverse effects of earlier or basic treatment (patient history): Patient 7, rheumatoid arthritis/synovitis; for earlier treatment with TNF-α inhibitors (patient history): Patient 12, ankylosing spondylitis.
Series [3] concerns inflammatory disease, immunological disease and/or autoimmunological disease. Kind of series: Treatment of patients: condition as stated by patient and physician (pain, fatigue, daily life, duration of effect, relapses). Type of series: in vivo, human. The procedure: All patients treated in the following Inventive Examples, Reference Examples and Comparative Examples were selected solely based on their diagnosis without performing a preselection in view of other parameters.
Annotation to the Tables 8A and B and 9 to 10: Patients were usually examined and treated in the same session. The success of the treatment or the effect thereof was then determined in the following session, usually one week later, and the next treatment performed as indicated in the tables.

Here are results for nine molecules from patent publication US20240228570A9, “PLATFORM TECHNOLOGY FOR TREATMENT OF INFLAMMATORY, IMMUNOLOGICAL AND/OR AUTOIMMUNOLOGICAL DISEASES” (ellennbe GmbH, priority 2021, published 2024).

For the molecule `COC(=O)c1cccnc1` [MN, methyl nicotinate], the “perfusion response of the skin” value in series [1] (50 μl of 20 mmol/l MN topical, healthy subjects, Laser Speckle Contrast Imager) is “reproducible perfusion response”. Moreover, the “time course of the perfusion increase” value in series [1] (topical application of MN, increase occurs a few minutes after application) is reported as “reaches a stable plateau phase after five minutes”.

For `CN(Cc1cnc2nc(N)nc(N)c2n1)c1ccc(C(=O)N[C@@H](CCC(=O)O)C(=O)O)cc1` [MTX, methotrexate], the “adverse effects of earlier or basic treatment (patient history)” value (shortened to “adverse effects”) in series [2] was “severe adverse effects (tendency to fibrosis in the lungs and sinusitis)”.

For `CCN(CCO)CCCC(C)Nc1ccnc2cc(Cl)ccc12.O=S(=O)(O)O` (stereo not shown) [Quensyl®, hydroxychloroquin sulphate], in series [2], the “adverse effects” value is “can cause irreversible eye damage with long-term use”.

With `CC[C@@H]1CN(C(=O)NCC(F)(F)F)C[C@@H]1c1cnc2cnc3[nH]ccc3n12` [upadacitinib], the “adverse effects” value in series [2] is “severe adverse effects (tendency to fibrosis in the lungs and sinusitis)”.

Turning to Enbrel®, the “earlier treatment with TNF-α inhibitors (patient history)” value (“earlier treatment with TNF-α inhibitors” for short) in series [2] was “accompanied by strong adverse side effects and hence, not successful”.

As to Remicade®: TNF-α inhibitor, the “earlier treatment with TNF-α inhibitors” value in series [2] is “accompanied by strong adverse side effects and hence, not successful”.

In the case of Simponi®: biologic, golimumab, the “effect of earlier treatment with biologics (patient's report)” value in series [3] (Patient 11, ankylosing spondylitis, within half a year the biologics lost their effect) was “had little effect from the outset”.

Turning to Symponi®: TNF-α inhibitor, the “earlier treatment with TNF-α inhibitors” value in series [2] is “accompanied by strong adverse side effects and hence, not successful”.

For the molecule tocilizumab: IL-6 inhibitor, the “effectiveness of earlier or basic treatment (patient history)” value in series [3] (Patient 7, rheumatoid arthritis/synovitis, before or beside the treatment of IE 7) was “only partially efficient”.
